Measured values: PMC3781598 (Pharmaceutical research, 2013)
Where “and” joins values, the source holds several entries; their conditions need not be identical. Equal entries are not always repeated. Entries after “also recorded” stand apart in the source; their conditions may differ. Where two headings read alike, the source gives them in different places.

Assays:
human CYP2A6 [1] = molecular target: T1, human CYP2A6 (Homo sapiens, UniProt P11509); experiment: Spectral ligand binding assay; conditions: for Kd 2A6 / Kd: ≥ = minimal Kd value; for Spectral shift type 2A6: UV/Vis difference spectra
T1 sequence (P11509 with tags, fused parts or gaps limits assumed): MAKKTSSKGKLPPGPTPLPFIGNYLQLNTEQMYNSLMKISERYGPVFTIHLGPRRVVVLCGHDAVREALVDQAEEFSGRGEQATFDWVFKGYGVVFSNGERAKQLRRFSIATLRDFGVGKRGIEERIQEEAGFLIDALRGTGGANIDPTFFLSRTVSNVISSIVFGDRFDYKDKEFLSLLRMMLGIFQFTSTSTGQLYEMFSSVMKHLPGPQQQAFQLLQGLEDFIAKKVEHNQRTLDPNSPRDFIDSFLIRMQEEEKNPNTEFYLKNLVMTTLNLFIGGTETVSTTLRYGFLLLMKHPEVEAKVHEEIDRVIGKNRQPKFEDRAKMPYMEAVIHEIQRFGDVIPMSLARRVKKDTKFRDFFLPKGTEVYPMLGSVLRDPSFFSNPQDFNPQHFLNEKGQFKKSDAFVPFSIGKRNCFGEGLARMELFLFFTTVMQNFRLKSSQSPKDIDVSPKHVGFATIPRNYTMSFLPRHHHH

human CYP2A13 [2] = molecular target: T2, human CYP2A13 (Homo sapiens, UniProt Q16696); experiment: Spectral ligand binding assay; conditions: for Spectral shift type 2A13: UV/Vis difference spectra; for Kd: Kd 2A13, spectral titration, ≥ = minimal Kd value
T2 sequence (Q16696 25-494): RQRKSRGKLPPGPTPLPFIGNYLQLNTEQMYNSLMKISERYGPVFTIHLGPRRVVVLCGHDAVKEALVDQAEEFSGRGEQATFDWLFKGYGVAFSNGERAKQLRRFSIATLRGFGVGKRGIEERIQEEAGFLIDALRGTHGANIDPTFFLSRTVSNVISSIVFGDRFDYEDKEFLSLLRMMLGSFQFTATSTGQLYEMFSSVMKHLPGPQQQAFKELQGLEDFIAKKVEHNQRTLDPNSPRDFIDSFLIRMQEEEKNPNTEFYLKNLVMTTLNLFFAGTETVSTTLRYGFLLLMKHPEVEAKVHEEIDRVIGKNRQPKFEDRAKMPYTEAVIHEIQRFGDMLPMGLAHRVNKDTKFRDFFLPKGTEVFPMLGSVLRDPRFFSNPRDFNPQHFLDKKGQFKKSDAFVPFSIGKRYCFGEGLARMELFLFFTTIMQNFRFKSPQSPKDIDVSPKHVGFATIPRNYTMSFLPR

human CYP2A6 [3] = molecular target: T1, human CYP2A6; experiment: Coumarin metabolism assay; conditions: for α (mixed inhibition) 2A6: mixed model inhibition
CYP2A6 / CYP2A13 [4] = experiment: Coumarin metabolism assay; conditions: human
human CYP2A13 [5] = molecular target: T3, human CYP2A13 (Homo sapiens, UniProt Q16696); experiment: Coumarin metabolism assay; conditions: for α (mixed inhibition) 2A13: mixed model inhibition
T3 sequence (Q16696 with tags, fused parts or gaps limits assumed): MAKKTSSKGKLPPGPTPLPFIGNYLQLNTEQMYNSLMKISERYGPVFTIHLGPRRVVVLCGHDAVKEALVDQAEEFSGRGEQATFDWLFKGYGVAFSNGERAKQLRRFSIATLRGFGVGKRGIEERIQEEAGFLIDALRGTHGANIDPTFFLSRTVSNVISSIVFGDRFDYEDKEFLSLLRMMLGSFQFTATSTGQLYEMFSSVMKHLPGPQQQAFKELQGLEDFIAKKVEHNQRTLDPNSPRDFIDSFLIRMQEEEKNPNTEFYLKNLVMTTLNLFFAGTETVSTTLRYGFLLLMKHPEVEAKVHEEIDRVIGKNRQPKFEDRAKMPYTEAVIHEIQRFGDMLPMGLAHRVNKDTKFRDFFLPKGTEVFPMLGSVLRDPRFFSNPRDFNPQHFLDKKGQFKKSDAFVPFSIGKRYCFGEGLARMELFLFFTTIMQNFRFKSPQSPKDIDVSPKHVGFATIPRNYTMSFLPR

CYP2A6 / CYP2A13 [6] = experiment: Spectral ligand binding assay; set-up: species or system human; conditions: human
[7] = pH 7.4, probe coumarin (7-hydroxylation), Selectivity Ki (2A6)/ Ki (2A13), ratio of the CYP2A6 value to the CYP2A13 value
[8] = Selectivity Kd (2A6)/ Kd (2A13), ratio of the CYP2A6 value to the CYP2A13 value
[9] = read-out: Kd 2A6, spectral titration
[10] = read-out: Ki 2A6, coumarin substrate
[11] = read-out: Ki 2A13, coumarin substrate

| Compound | Kd 2A6 (human CYP2A6 [1]; spectral titration) | Spectral shift type 2A13 (human CYP2A13 [2]) | Ki (human CYP2A6 [3]) | selectivity ratio at 10 min (CYP2A6 / CYP2A13 [4]; [7]) | Ki (human CYP2A13 [5]) | Kd (human CYP2A13 [2]) | selectivity ratio at 10 min (CYP2A6 / CYP2A13 [4]; pH 7.4) | Kd (human CYP2A6 [1]; Kd 2A6, spectral titration) | Spectral shift type 2A6 (human CYP2A6 [1]) | selectivity ratio (CYP2A6 / CYP2A13 [6]) | Mode of inhibition 2A6 (human CYP2A6 [3]; coumarin substrate) | α (mixed inhibition) 2A6 (human CYP2A6 [3]; coumarin substrate) | selectivity ratio (CYP2A6 / CYP2A13 [6]; [8]) | Mode of inhibition 2A13 (human CYP2A13 [5]; coumarin substrate) | α (mixed inhibition) 2A13 (human CYP2A13 [5]; coumarin substrate) | Kd (human CYP2A6 [1]; [9]) | Ki (human CYP2A6 [3]; [10]) | Ki (human CYP2A13 [5]; [11]) |
| --- | --- | --- | --- | --- | --- | --- | --- | --- | --- | --- | --- | --- | --- | --- | --- | --- | --- | --- |
| Fc1ccccc1CN1CCOCC1 [Compound 2, 4-(2-fluorobenzyl)morpholine] | no spectral shift; also recorded: No ^** Spectral Shift | I | ≥ 1000 µM | ≥ 2.6 | 379 µM |  |  |  |  |  |  |  |  |  |  |  |  |  |
| Brc1ccccc1CN1CCOCC1 [Compound 4, 4-(2-bromobenzyl)morpholine] | No ^** Spectral Shift | I | ≥ 1000 µM |  | 17.6 ± 3.1 µM | 6.3 µM | ≥ 56.8 |  |  |  |  |  |  |  |  |  |  |  |
| Cc1ccccc1CN1CCOCC1 [Compound 5, 4-(2-methylbenzyl)morpholine] | No ^** Spectral Shift | I | ≥ 1000 µM | ≥ 14.9 | 66.9 µM | 18.5 µM |  |  |  |  |  |  |  |  |  |  |  |  |
| CCc1ccccc1CN1CCOCC1 [Compound 6, 4-(2-ethylbenzyl)morpholine] |  | I | 818 µM |  | 16.9 µM | 4.5 µM | 48.4 | ≥ 575 µM | I | ≥ 128 | mixed inhibition | 13.3 |  |  |  |  |  |  |
| Clc1cccc(Cl)c1CN1CCOCC1 [Compound 8, 4-(2,6-dichlorobenzyl)morpholine] |  | I | 237 µM | 13.7 | 18.1 µM | 1.3 µM |  | ≥ 522 µM | I |  |  |  | > 400 |  |  |  |  |  |
| Clc1cccc(CN2CCOCC2)c1 [Compound 10, 4-(3-chlorobenzyl)morpholine] |  | I | 352 µM | 1.4 | 260 µM | 69.1 ± 30.2 µM |  | ≥ 400 µM | I [drawing 12] II |  |  |  | ≥ 5.8 |  |  |  |  |  |
| Clc1ccc(CN2CCOCC2)cc1 [Compound 11, 4-(4-chlorobenzyl)morpholine] |  | I | 448 µM | 1 | 458 µM | 168 µM and 167 µM |  | ≥ 245 µM | I |  |  |  | ≥ 1.5 |  |  |  |  |  |
| CC1CN(Cc2cccc(Cl)c2Cl)CC(C)O1 (centres unmarked) [Compound 14, 4-(2,3-dichlorobenzyl)-2,6-dimethylmorpholine] |  | I | ≥ 1000 µM | ≥ 2.6 | 646 µM | 37 µM |  | ≥ 462 µM | I |  |  |  | ≥ 12.5 | mixed inhibition | 19.6 |  |  |  |
| c1ccc2c(CN3CCOCC3)cccc2c1 [Compound 15, 4-(naphthalen-1-ylmethyl)morpholine] | Weak Spectral Shift | I | 500 µM | 2.3 | 219 ± 18.7 µM | 41.8 µM and 121 µM |  |  |  |  | mixed inhibition | 3.1 |  |  |  |  |  |  |
| Clc1ccccc1Cn1ccnc1 [Compound 16, 1-(2-chlorobenzyl)-1H-imidazole] |  |  | 2.9 µM | 1 | 2.8 µM | < 0.1 µM |  | 0.1 µM |  |  | purely competitive inhibitors |  | ≥ 1 | mixed inhibition; also recorded: mixed inhibitors | 3.9 |  |  |  |
| Clc1cccc(Cl)c1Cn1ccnc1 [Compound 17, 1-(2,6-dichlorobenzyl)-1H-imidazole] |  |  | 0.9 µM | 0.4 | 2.1 µM | < 0.1 µM |  | 0.9 µM |  |  | purely competitive inhibitors |  | ≥ 9 | mixed inhibition; also recorded: mixed inhibitors | 2.0 |  |  |  |
| c1csc(CN2CCOCC2)c1 [Compound 19, 4-(thiophen-2-ylmethyl)morpholine] |  | I | 270 µM | 2.1 | 131 µM | 30.8 µM |  | ≥ 464 µM | I |  |  |  | ≥ 15.1 |  |  |  |  |  |
| Clc1ccsc1CN1CCOCC1 [Compound 20, 4-((3-chlorothiophen-2-yl)methyl)morpholine] |  | I | 433 µM | 7.9 | 54.7 µM | 10.7 µM |  | ≥ 239 µM | I |  |  |  | ≥ 22.3 |  |  |  |  |  |
| CN1CCN(Cc2ccccc2Cl)CC1 [Compound 21, 1-(2-chlorobenzyl)-4-methylpiperazine] | weak or no spectral shifts; also recorded: Weak Spectral Shift | I | ≥ 1000 µM |  | ≥ 1000 µM | 306 µM |  |  |  |  |  |  |  |  |  |  |  |  |
| CN1CCN(Cc2c(Cl)cccc2Cl)CC1 [Compound 22, 1-(2,6-dichlorobenzyl)-4-methylpiperazine] | weak or no spectral shifts; also recorded: No Spectral Shift | I | ≥ 1000 µM |  | ≥ 1000 µM | ≥ 362 µM |  |  |  |  |  |  |  |  |  |  |  |  |
| Clc1ccccc1CCN1CCOCC1 [Compound 24, 4-(2-chlorophenethyl)morpholine] |  |  |  |  |  |  |  |  |  |  |  |  |  |  |  | ≥ 604 µM | ≥ 1000 µM | 604 µM |
| Benzylmorpholine [Compound 1] |  |  |  |  |  |  |  |  | I [drawing 2] II |  | mixed inhibition | 3.4 |  |  |  | ≥ 300 µM | 675 µM | 477 µM |
